Values of other authors, collected in US12551470B2, “Metabolism enhancing compositions” (Red Mountain Med Spa, LLC, priority 2022, dated 2026).

Legend:
[1] = compared to the other phytochemicals (11 phytochemicals, Tomer et al., J. Med. Food 2007)
[2] = compared to the other phytochemicals (11 phytochemicals, Tomer et al., J. Med. Food 2007); remark: listed apart in the source

O=C(O)CCCC[C@@H]1CCSS1 [α-lipoic acid, (R)-5-(1,2-dithiolan-3-yl)pentanoic acid]
TOSC values [1]: high | ORAC values [2]: low
